#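 Briefly, cells in 96-well plates were exposed to five compound concentrations for 48 h, and endpoints were estimated by linear interpolation. TGI: concentration producing complete growth inhibition.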
# Columns and labels:
# Experiment in all cases: DTP human tumour cell line panel, 48 h
# SF-295 CNS = test system: SF-295 CNS
# OVCAR-4 ovarian = test system: OVCAR-4 ovarian
# HT29 colon = test system: HT29 colon
# OVCAR-3 ovarian = test system: OVCAR-3 ovarian
# SF-539 CNS = test system: SF-539 CNS
# OVCAR-5 ovarian = test system: OVCAR-5 ovarian
# M14 melanoma = test system: M14 melanoma
# MDA-MB-435 = test system: MDA-MB-435
# HCT-15 colon = test system: HCT-15 colon
# PC-3 prostate = test system: PC-3 prostate
# SK-MEL-5 melanoma = test system: SK-MEL-5 melanoma
# KM12 colon = test system: KM12 colon
# LOX IMVI melanoma = test system: LOX IMVI melanoma
# MOLT-4 leukemia = test system: MOLT-4 leukemia
# SF-268 CNS = test system: SF-268 CNS
# COLO 205 colon = test system: COLO 205 colon
# OVCAR-8 ovarian = test system: OVCAR-8 ovarian
# TK-10 renal = test system: TK-10 renal
# UO-31 renal = test system: UO-31 renal
# T-47D breast = test system: T-47D breast
# MDA-N = test system: MDA-N
# HS 578T breast = test system: HS 578T breast
# MCF7 breast = test system: MCF7 breast
# RPMI-8226 leukemia = test system: RPMI-8226 leukemia
# 786-0 renal = test system: 786-0 renal
# BT-549 breast = test system: BT-549 breast
# UACC-62 melanoma = test system: UACC-62 melanoma
# MALME-3M melanoma = test system: MALME-3M melanoma
# CAKI-1 renal = test system: CAKI-1 renal
# CCRF-CEM leukemia = test system: CCRF-CEM leukemia
# NCI-H460 lung = test system: NCI-H460 lung
# A549 NSCLC = test system: A549 NSCLC
# NCI-H226 lung = test system: NCI-H226 lung
# SR leukemia = test system: SR leukemia
# IGROV1 ovarian = test system: IGROV1 ovarian
# NCI/ADR-RES ovarian = test system: NCI/ADR-RES ovarian
# NCI-H23 lung = test system: NCI-H23 lung
# K-562 leukemia = test system: K-562 leukemia
# RXF 393 renal = test system: RXF 393 renal
# U251 CNS = test system: U251 CNS
# A498 renal = test system: A498 renal
# MDA-MB-231 breast = test system: MDA-MB-231 breast
# HOP-92 NSCLC = test system: HOP-92 NSCLC
# ACHN renal = test system: ACHN renal
# SNB-19 CNS = test system: SNB-19 CNS
# HCT-116 colon = test system: HCT-116 colon
# HOP-62 NSCLC = test system: HOP-62 NSCLC
# NCI-H522 lung = test system: NCI-H522 lung
# HCC-2998 colon = test system: HCC-2998 colon
# DU-145 prostate = test system: DU-145 prostate
# SK-MEL-28 melanoma = test system: SK-MEL-28 melanoma
# SNB-75 CNS = test system: SNB-75 CNS
# EKVX NSCLC = test system: EKVX NSCLC
# HL-60(TB) leukemia = test system: HL-60(TB) leukemia
# UACC-257 melanoma = test system: UACC-257 melanoma
# SN12C renal = test system: SN12C renal
# SK-MEL-2 melanoma = test system: SK-MEL-2 melanoma
# SK-OV-3 ovarian = test system: SK-OV-3 ovarian
# SW-620 colon = test system: SW-620 colon
smiles,measurement,setting,value
CC(=O)N/N=C1/NN(C(C)=O)C2(S1)C(=O)Nc1ccc(C)cc12 (stereo unspecified),TGI,SF-295 CNS,> 100 µM
same,TGI,OVCAR-4 ovarian,> 100 µM
same,TGI,HT29 colon,> 100 µM
same,TGI,OVCAR-3 ovarian,> 100 µM
same,TGI,SF-539 CNS,> 100 µM
same,TGI,OVCAR-5 ovarian,> 100 µM
same,TGI,M14 melanoma,> 100 µM
same,TGI,MDA-MB-435,> 100 µM
same,TGI,HCT-15 colon,> 100 µM
same,TGI,PC-3 prostate,> 100 µM
same,TGI,SK-MEL-5 melanoma,> 100 µM
same,TGI,KM12 colon,> 100 µM
same,TGI,LOX IMVI melanoma,> 100 µM
same,TGI,MOLT-4 leukemia,> 100 µM
same,TGI,SF-268 CNS,> 100 µM
same,TGI,COLO 205 colon,> 100 µM
same,TGI,OVCAR-8 ovarian,> 100 µM
same,TGI,TK-10 renal,> 100 µM
same,TGI,UO-31 renal,> 100 µM
same,TGI,T-47D breast,70.9 µM
same,TGI,MDA-N,> 100 µM
same,TGI,HS 578T breast,> 100 µM
same,TGI,MCF7 breast,> 100 µM
same,TGI,RPMI-8226 leukemia,> 100 µM
same,TGI,786-0 renal,> 100 µM
same,TGI,BT-549 breast,> 100 µM
same,TGI,UACC-62 melanoma,> 100 µM
same,TGI,MALME-3M melanoma,> 100 µM
same,TGI,CAKI-1 renal,> 100 µM
same,TGI,CCRF-CEM leukemia,> 100 µM
same,TGI,NCI-H460 lung,> 100 µM
same,TGI,A549 NSCLC,> 100 µM
same,TGI,NCI-H226 lung,> 100 µM
same,TGI,SR leukemia,> 100 µM
same,TGI,IGROV1 ovarian,> 100 µM
same,TGI,NCI/ADR-RES ovarian,> 100 µM
same,TGI,NCI-H23 lung,> 100 µM
same,TGI,K-562 leukemia,> 100 µM
same,TGI,RXF 393 renal,> 100 µM
same,TGI,U251 CNS,> 100 µM
same,TGI,A498 renal,> 100 µM
same,TGI,MDA-MB-231 breast,> 100 µM
same,TGI,HOP-92 NSCLC,> 100 µM
same,TGI,ACHN renal,> 100 µM
same,TGI,SNB-19 CNS,> 100 µM
same,TGI,HCT-116 colon,> 100 µM
same,TGI,HOP-62 NSCLC,> 100 µM
same,TGI,NCI-H522 lung,> 100 µM
same,TGI,HCC-2998 colon,> 100 µM
same,TGI,DU-145 prostate,> 100 µM
same,TGI,SK-MEL-28 melanoma,> 100 µM
same,TGI,SNB-75 CNS,> 100 µM
same,TGI,EKVX NSCLC,> 100 µM
same,TGI,HL-60(TB) leukemia,> 100 µM
same,TGI,UACC-257 melanoma,> 100 µM
same,TGI,SN12C renal,> 100 µM
COC(=O)C1(Cc2ccccc2)Cc2cc3c(cc2C1)CCC3,TGI,SF-295 CNS,> 100 µM
same,TGI,OVCAR-4 ovarian,> 100 µM
same,TGI,HT29 colon,24.6 µM
same,TGI,OVCAR-3 ovarian,> 100 µM
same,TGI,SF-539 CNS,> 100 µM
same,TGI,OVCAR-5 ovarian,82.6 µM
same,TGI,M14 melanoma,> 100 µM
same,TGI,MDA-MB-435,35.6 µM
same,TGI,HCT-15 colon,> 100 µM
same,TGI,PC-3 prostate,> 100 µM
same,TGI,SK-MEL-5 melanoma,33.7 µM
same,TGI,KM12 colon,76.4 µM
same,TGI,LOX IMVI melanoma,34.7 µM
same,TGI,MOLT-4 leukemia,35 µM
same,TGI,SF-268 CNS,> 100 µM
same,TGI,COLO 205 colon,33.3 µM
same,TGI,OVCAR-8 ovarian,88.9 µM
same,TGI,TK-10 renal,> 100 µM
same,TGI,UO-31 renal,> 100 µM
same,TGI,T-47D breast,75.9 µM
same,TGI,MDA-N,53.5 µM
same,TGI,HS 578T breast,> 100 µM
same,TGI,MCF7 breast,42.5 µM
same,TGI,RPMI-8226 leukemia,36.5 µM
same,TGI,786-0 renal,> 100 µM
same,TGI,BT-549 breast,> 100 µM
same,TGI,UACC-62 melanoma,> 100 µM
same,TGI,MALME-3M melanoma,52.6 µM
same,TGI,CCRF-CEM leukemia,31.6 µM
same,TGI,NCI-H460 lung,> 100 µM
same,TGI,A549 NSCLC,> 100 µM
same,TGI,NCI-H226 lung,63.3 µM
same,TGI,SR leukemia,31.3 µM
same,TGI,IGROV1 ovarian,> 100 µM
same,TGI,NCI/ADR-RES ovarian,> 100 µM
same,TGI,NCI-H23 lung,> 100 µM
same,TGI,K-562 leukemia,41.6 µM
same,TGI,SK-MEL-2 melanoma,40.1 µM
same,TGI,RXF 393 renal,50.7 µM
same,TGI,SK-OV-3 ovarian,> 100 µM
same,TGI,U251 CNS,64.9 µM
same,TGI,A498 renal,82.4 µM
same,TGI,MDA-MB-231 breast,> 100 µM
same,TGI,HOP-92 NSCLC,41.2 µM
same,TGI,SW-620 colon,> 100 µM
same,TGI,ACHN renal,> 100 µM
same,TGI,SNB-19 CNS,> 100 µM
same,TGI,HCT-116 colon,76.9 µM
same,TGI,HOP-62 NSCLC,> 100 µM
same,TGI,NCI-H522 lung,56.4 µM
same,TGI,HCC-2998 colon,> 100 µM
same,TGI,DU-145 prostate,> 100 µM
same,TGI,SK-MEL-28 melanoma,> 100 µM
same,TGI,SNB-75 CNS,95.4 µM
same,TGI,EKVX NSCLC,60.9 µM
same,TGI,HL-60(TB) leukemia,31.3 µM
same,TGI,UACC-257 melanoma,78.8 µM
same,TGI,SN12C renal,> 100 µM
Cc1cccc2c1CC1(Cc3ccccc3C1=O)C2=O (stereo unspecified),TGI,SF-295 CNS,> 100 µM
same,TGI,OVCAR-4 ovarian,> 100 µM
same,TGI,HT29 colon,> 100 µM
same,TGI,OVCAR-3 ovarian,> 100 µM
same,TGI,SF-539 CNS,> 100 µM
same,TGI,OVCAR-5 ovarian,> 100 µM
same,TGI,M14 melanoma,> 100 µM
same,TGI,MDA-MB-435,> 100 µM
same,TGI,HCT-15 colon,> 100 µM
same,TGI,PC-3 prostate,> 100 µM
same,TGI,SK-MEL-5 melanoma,> 100 µM
same,TGI,KM12 colon,> 100 µM
same,TGI,LOX IMVI melanoma,> 100 µM
same,TGI,MOLT-4 leukemia,> 100 µM
same,TGI,SF-268 CNS,> 100 µM
same,TGI,COLO 205 colon,> 100 µM
same,TGI,OVCAR-8 ovarian,> 100 µM
same,TGI,TK-10 renal,> 100 µM
same,TGI,UO-31 renal,> 100 µM
same,TGI,T-47D breast,> 100 µM
same,TGI,MDA-N,> 100 µM
same,TGI,HS 578T breast,> 100 µM
same,TGI,MCF7 breast,> 100 µM
same,TGI,RPMI-8226 leukemia,> 100 µM
same,TGI,786-0 renal,> 100 µM
same,TGI,BT-549 breast,80.6 µM
same,TGI,UACC-62 melanoma,> 100 µM
same,TGI,MALME-3M melanoma,> 100 µM
same,TGI,CCRF-CEM leukemia,> 100 µM
same,TGI,NCI-H460 lung,> 100 µM
same,TGI,A549 NSCLC,> 100 µM
same,TGI,NCI-H226 lung,> 100 µM
same,TGI,SR leukemia,> 100 µM
same,TGI,IGROV1 ovarian,> 100 µM
same,TGI,NCI/ADR-RES ovarian,> 100 µM
same,TGI,NCI-H23 lung,> 100 µM
same,TGI,K-562 leukemia,> 100 µM
same,TGI,RXF 393 renal,> 100 µM
same,TGI,SK-OV-3 ovarian,99.6 µM
same,TGI,U251 CNS,> 100 µM
same,TGI,A498 renal,> 100 µM
same,TGI,MDA-MB-231 breast,> 100 µM
same,TGI,HOP-92 NSCLC,> 100 µM
same,TGI,SW-620 colon,> 100 µM
same,TGI,ACHN renal,> 100 µM
same,TGI,SNB-19 CNS,> 100 µM
same,TGI,HCT-116 colon,> 100 µM
same,TGI,HOP-62 NSCLC,> 100 µM
same,TGI,NCI-H522 lung,> 100 µM
same,TGI,HCC-2998 colon,> 100 µM
same,TGI,DU-145 prostate,> 100 µM
same,TGI,SK-MEL-28 melanoma,> 100 µM
same,TGI,SNB-75 CNS,> 100 µM
same,TGI,EKVX NSCLC,> 100 µM
same,TGI,HL-60(TB) leukemia,> 100 µM
same,TGI,UACC-257 melanoma,> 100 µM
same,TGI,SN12C renal,> 100 µM

# — PubChem BioAssay (NCI)
